Measured values: paper PMC10590419, “Structural and mechanistic insights into the inhibition of respiratory syncytial virus polymerase by a non-nucleoside inhibitor” (Communications Biology, 2023)
Several values for one entry are separate records, joined by “and”; a condition that tells them apart may be missing. Identical values can stand only once. Like-named read-outs stand apart in the source and are kept apart here.

Experiments:
[1] = target: RSV L+P RdRp (Human respiratory syncytial virus A, UniProt P28887); assay: Biotinylated primer extension Flashplate assay, recombinant RSV L+P; type: biochemical, Human RSV (strain A2)
Procedure: RNA polymerase reaction samples consisted of recombinant RSV L-P polymerase (3 nM) in a buffer containing Tris pH 7.5 (20 mM), KCl (10 mM), dithiothreitol (2 mM), Triton (0.01%), DMSO (10% v/v) with compound at appropriate dilution (10 points 1:5-fold serial dilution starting at 1 µM), and MgCl2 (6 mM). Reactions were started at 30 °C by adding an oligonucleotide template sequence derived from the RSV leader promoter (5’-[…]-3’, 0.2 μM) together with a biotinylated primer (5’-bi-ACGC, 4 μM) mixed with GTP (10 µM), ATP (10 µM) and [α-^33P]CTP (0.025 µM, 3000 Ci/mmol) in a final volume of 10 μL. Reactions were stopped after 120 min by the addition of 90 µl EDTA (0.1 M). Samples were transferred to Flashplates and left 1 h at room temperature for incubation before being washed twice with 0.1% Tween 20, sealed (Topseal) and read on a Wallac MicroBeta TriLux Liquid Scintillation Counter.

[2] = target: RSV L+P complex (Human respiratory syncytial virus A, UniProt P28887); type: biochemical; conditions: for MTase activity, RNA+compound+RSV L+P, CPM: three technical replicates
[3] = in vitro; conditions: rhesus monkey
[4] = Cell viability of replicon cell line (CellTiter-Glo); type: cell-based; conditions: hamster, APC-126 cells (BHK-derived, stable RSV A2 replicon); APC-126, CellTiter-Glo
Procedure: The RSV subgenomic replicon system was licensed from Apath (Apath, NY, USA)[49],[50]. The BHK-derived cell line (APC-126) containing the stable RSV A2 replicon was cultured in DMEM/Hams F-12 medium supplemented with 10% (v/v) FBS (Gibco), 1% (v/v) penicillin (10,000 units/mL) and streptomycin (10,000 µg/mL) solution (Gibco), 1% (v/v) MEM non-essential amino acids solution (Gibco), 5% (v/v) Tryptose Phosphate Broth solution (29.5 g/l) (Sigma-Aldrich) and 10 µg/ml of blasticidin solution (Invivogen). Cells were maintained at 37 °C in a humidified 5% CO2 atmosphere. 5000 cells were plated in 96-well clear plates (Corning) in 100 µl/well of medium. […] Cell viability (CC50 and CC90) was measured with a CellTiter-Glo cell proliferation assay (Promega, 100 µl/well of reagent). Results were expressed as EC50 and EC90 values as well as CC50 and CC90 values.

RSV L+P RdRp, sequence (P03421 whole entry): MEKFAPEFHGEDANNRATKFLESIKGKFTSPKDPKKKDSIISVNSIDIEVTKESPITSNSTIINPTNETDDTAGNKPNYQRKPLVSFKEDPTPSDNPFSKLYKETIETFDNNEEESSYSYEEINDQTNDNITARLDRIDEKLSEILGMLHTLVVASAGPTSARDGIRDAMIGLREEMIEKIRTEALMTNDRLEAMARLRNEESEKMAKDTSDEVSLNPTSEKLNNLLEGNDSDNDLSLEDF
RSV L+P RdRp, sequence (P28887 whole entry): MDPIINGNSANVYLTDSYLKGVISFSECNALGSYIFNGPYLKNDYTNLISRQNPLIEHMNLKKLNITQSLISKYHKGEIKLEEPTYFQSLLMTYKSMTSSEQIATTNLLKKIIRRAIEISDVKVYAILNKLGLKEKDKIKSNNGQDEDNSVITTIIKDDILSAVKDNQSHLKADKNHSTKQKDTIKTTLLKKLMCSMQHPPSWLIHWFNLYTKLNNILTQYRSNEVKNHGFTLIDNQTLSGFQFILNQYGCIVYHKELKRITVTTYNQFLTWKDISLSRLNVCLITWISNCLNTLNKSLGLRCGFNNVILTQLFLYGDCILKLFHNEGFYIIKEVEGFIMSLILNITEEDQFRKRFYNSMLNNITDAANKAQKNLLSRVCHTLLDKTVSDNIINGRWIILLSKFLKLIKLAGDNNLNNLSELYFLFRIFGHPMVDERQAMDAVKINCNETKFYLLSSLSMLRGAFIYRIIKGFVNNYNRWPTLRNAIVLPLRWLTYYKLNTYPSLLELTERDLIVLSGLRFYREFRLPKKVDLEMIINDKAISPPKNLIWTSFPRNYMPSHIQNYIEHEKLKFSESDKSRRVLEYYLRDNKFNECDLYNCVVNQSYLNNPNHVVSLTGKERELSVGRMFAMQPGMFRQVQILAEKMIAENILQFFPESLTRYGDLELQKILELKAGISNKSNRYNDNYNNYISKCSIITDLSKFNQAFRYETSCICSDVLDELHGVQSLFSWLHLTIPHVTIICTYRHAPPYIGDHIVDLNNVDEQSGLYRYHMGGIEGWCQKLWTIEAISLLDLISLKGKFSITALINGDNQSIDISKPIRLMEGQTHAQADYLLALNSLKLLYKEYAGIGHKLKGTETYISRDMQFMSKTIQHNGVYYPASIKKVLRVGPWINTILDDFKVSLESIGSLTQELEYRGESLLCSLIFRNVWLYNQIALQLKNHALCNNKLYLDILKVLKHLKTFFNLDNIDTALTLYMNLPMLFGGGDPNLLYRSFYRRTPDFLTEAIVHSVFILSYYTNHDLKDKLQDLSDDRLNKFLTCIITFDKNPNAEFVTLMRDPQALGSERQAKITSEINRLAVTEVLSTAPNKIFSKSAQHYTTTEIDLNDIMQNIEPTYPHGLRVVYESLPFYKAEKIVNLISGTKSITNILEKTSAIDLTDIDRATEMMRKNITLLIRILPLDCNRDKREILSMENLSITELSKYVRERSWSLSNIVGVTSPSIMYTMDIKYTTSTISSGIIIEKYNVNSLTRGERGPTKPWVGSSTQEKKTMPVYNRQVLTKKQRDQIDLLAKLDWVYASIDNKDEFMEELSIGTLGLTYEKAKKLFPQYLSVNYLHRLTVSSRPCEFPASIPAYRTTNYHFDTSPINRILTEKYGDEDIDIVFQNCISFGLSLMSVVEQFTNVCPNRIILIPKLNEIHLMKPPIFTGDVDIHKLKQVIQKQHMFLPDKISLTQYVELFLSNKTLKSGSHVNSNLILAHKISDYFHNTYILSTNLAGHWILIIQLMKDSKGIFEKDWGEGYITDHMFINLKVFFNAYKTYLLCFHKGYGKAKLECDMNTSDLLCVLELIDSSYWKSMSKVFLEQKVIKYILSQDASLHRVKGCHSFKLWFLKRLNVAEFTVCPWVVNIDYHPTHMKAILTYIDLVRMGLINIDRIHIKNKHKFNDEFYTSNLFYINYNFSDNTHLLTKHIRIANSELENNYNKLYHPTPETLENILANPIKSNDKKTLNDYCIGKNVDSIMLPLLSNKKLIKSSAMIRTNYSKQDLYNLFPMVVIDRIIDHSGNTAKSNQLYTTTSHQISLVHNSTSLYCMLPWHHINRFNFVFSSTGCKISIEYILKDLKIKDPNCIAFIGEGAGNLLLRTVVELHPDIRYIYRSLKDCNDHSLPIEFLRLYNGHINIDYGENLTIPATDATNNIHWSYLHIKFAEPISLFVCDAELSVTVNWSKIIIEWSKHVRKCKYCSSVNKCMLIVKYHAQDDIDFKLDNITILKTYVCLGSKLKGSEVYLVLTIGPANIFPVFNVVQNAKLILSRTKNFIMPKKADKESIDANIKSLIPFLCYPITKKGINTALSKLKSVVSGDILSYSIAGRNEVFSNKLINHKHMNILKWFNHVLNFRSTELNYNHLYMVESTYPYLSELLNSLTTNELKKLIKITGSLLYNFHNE
RSV L+P complex, sequence (P03421 whole entry): as the sequence (P03421 whole entry) above
RSV L+P complex, sequence (P28887 whole entry): as the sequence (P28887 whole entry) above

SMILES: COc1cc(C(=O)NC[C@](O)(c2cc(C(C)(C)O)c(F)c(-c3ccc(F)cc3)n2)C(F)(F)F)cc2cc(C)nnc12 [JNJ-8003]
- IC50 ([1]; RSV L+P RdRp primer extension, n 18, read-out: Median IC50): 0.00073 µM
- IC50 ([1]; RdRp activity, Flashplate (Fig. 1c), read-out: IC50): 0.00067 µM
- inhibition at 0.00032 µM ([1]; [JNJ-8003] 0.00032 uM, replicates 1-4): 28.6%
- % inhibition ([1]; [JNJ-8003] 0.00032 uM, replicates 1-4, 0.00032 µM): 26.2934% and 27.7635% and 40.6870%
- inhibition at 0.0016 µM ([1]; [JNJ-8003] 0.0016 uM, replicates 1-4): 55.8%
- % inhibition ([1]; [JNJ-8003] 0.0016 uM, replicates 1-4, 0.0016 µM): 60.6805% and 64.1654% and 73.5323%
- inhibition at 0.008 µM ([1]; [JNJ-8003] 0.008 uM, replicates 1-4): 81.4%
- % inhibition ([1]; [JNJ-8003] 0.008 uM, replicates 1-4, 0.008 µM): 89.6905% and 92.3440% and 94.9354%
- inhibition at 0.04 µM ([1]; [JNJ-8003] 0.04 uM, replicates 1-4): 93%
- % inhibition ([1]; [JNJ-8003] 0.04 uM, replicates 1-4, 0.04 µM): 96.5839% and 97.2066% and 98.2976%
- inhibition at 0.2 µM ([1]; [JNJ-8003] 0.2 uM, replicates 1-4): 95.2%
- % inhibition ([1]; [JNJ-8003] 0.2 uM, replicates 1-4, 0.2 µM): 96.5743% and 98.0014% and 97.9026%
- MTase activity, RNA+compound+RSV L+P, CPM ([2]; 50 uM): 23422 CPM and 23466 CPM and 23927 CPM
- MTase activity, RNA+compound+RSV L+P, CPM ([2]; 200 uM): 14871 CPM and 15721 CPM and 15503 CPM
- impact on MTase activity (in words) ([2]; full-length RSV L+P): no impact
- CC50 ([3]; Median CC50, LLC-MK2, parallel to HMPV assay): 14 µM
- CC50 ([3]; Median CC50, LLC-MK2, parallel to PIV-1 assay): 18 µM
- CC50 ([3]; Median CC50, LLC-MK2, parallel to PIV-3 assay): 19 µM
- CC50 at 3 days [4]: 11 µM
